In patent publication US8318809B2, “Compositions and methods for treating jellyfish stings” (priority 2006, dated 2012):
Counter-ions that a name gives are not always drawn.

How the values were obtained:
[1] = test system: sea wasp (Chiropsalmus quadumanus) stings; assay: Jellyfish sting test on inner forearm of human test subjects, sea wasp; assay type: in vivo; conditions: for maintenance of relief: 5% lidocaine in 80:20 water:propylene glycol, 5% benzocaine in 90:10 propylene glycol:acetone, control sites decreased after 2-3 h; for red rash at sting site: 5% lidocaine or 5% benzocaine formulations vs other treatments; for time to sting relief: 10% lidocaine in 50:50 water:propylene glycol, 10% benzocaine in 90:10 propylene glycol:acetone
Description: These are the two most common types of stinging jellies that occur with frequency and/or regularity in normal swimming waters on the USA east coast north of Cape Canaveral.
(§1) Living healthy specimens were captured locally using trawls and dip-nets. They were maintained in flowing seawater aquariums (ca. 500 liters) for days-weeks; sea nettles maintained for long periods were fed live minnows (mummichugs).
Healthy, actively swimming jellyfish were used in all examples, and the same procedure was applied in all cases.
Stings from sea wasps were induced by manually holding a live specimen by its bell, and dragging the tentacles across the inner forearm of the test subject. […] Stings from the larger sea nettles were induced using tweezers to manually remove tentacles from living specimens and dragging them across the inner lower forearms of test subjects.
(§2) Products were applied to sting sites within 1-2 minutes unless otherwise noted below. […] Thus one forearm was used for each treatment effect, and each forearm included two sting sites: one received a treatment while the other served as an untreated control. Tests were either conducted simultaneously in duplicate using two subjects, or sequentially several hours apart using the same subject.

[2] = stated as known; cited from earlier work
[3] = Solubility in water; assay type: physicochemical; conditions: Example 13 remark
[4] = test system: tongue; assay: Minimum response time to topically applied anesthetic on the tongue; assay type: in vivo, human; conditions: Example 5; 5 mg of pure compound applied to the tongue
Procedure: Two formulations were tested in the present example to test the minimum response time of the human body to topically applied lidocaine and benzocaine:
5 mg of pure benzocaine applied to the tongue

[5] = test system: jellyfish stings; assay: Jellyfish sting test, jellyfish species not stated; assay type: in vivo, human; conditions: Example 20; 4% lidocaine hydrochloride in water
Description: […] Healthy, actively swimming jellyfish were used in all examples, and the same procedure was applied in all cases. The same human test subjects were used in all experiments, in order to have continuity and be able to qualitatively compare treatment effects among experimental dates.
(§3) Stings from sea wasps were induced by manually holding a live specimen by its bell, and dragging the tentacles across the inner forearm of the test subject. Sea-wasps caused immediate stinging sensations. Stings from the larger sea nettles were induced using tweezers to manually remove tentacles from living specimens and dragging them across the inner lower forearms of test subjects. Sea-nettle stings were of the same or somewhat more intensity as those of sea wasps, but were not felt until about 15 s after contact, perhaps because the tentacles have visibly thicker gelatinous coatings.
as §2

[6] = test system: jellyfish stings; assay: Beach surveys of beachgoers stung by a jellyfish; assay type: in vivo, human
Procedure: The beach surveys were conducted on beachgoers that stated they had been stung by a jellyfish. All participants voluntarily filled out an 8 question survey.
Locations: Tybee Island, Ga., Saint Simons Island, Ga., Hilton Head, S.C., Jacksonville beach, Fla., Daytona beach, Fla.
Time to application: Varied based on the person surveyed. Average times from sting to treatment ranged from 5 to 15 minutes.
Application to relief: Most respondents noted that they began to feel relief at the 1 minute mark. Based on an average level of affected area (less than 10% body coverage) the respondents noted virtually all the pain subsided by the 5 minute mark. (Most of the respondents who noted “some relief” departed within 2 minutes, which is the approximately time it took them to fill out the survey. Some of these respondents later returned to report total relief, but this is not shown in the data below). The results are presented in Table 3 and FIG. 2, below (total respondents: 232).

[7] = test system: fire ant bites; assay: Fire ant bite treatment, one subject; assay type: in vivo, human; conditions: Example 23
Procedure: The subject for this example had substantial experience with fire ant bites, with general symptoms of blistering, itching, pain associated with the bites. […] Subject received 7 fire ant bites while gardening outside. Subject applied the formulation to the seven bites approximately 15 minutes after the bites occurred.

[8] = test system: chigger bites; assay: Chigger bite treatment, one subject; assay type: in vivo, human; conditions: Example 22; two bites per treatment; lidocaine as 4% solution in water
Description: Subject received 6 chigger bites on inner thigh area. Subject applied the formulation to two of the chigger bites, treated two others with Chigger Rid®, a drug store product, and applied clear finger nail polish, a home remedy, to the final two bites.

[9] = test system: nematocysts of sea nettle tentacles; assay: Microscopy observations of nematocyst responses to product exposure; conditions: Example 11; pipetted onto tentacles in seawater, viewed at 60×; lidocaine as 10% solution in seawater
Description: Tentacles were removed using tweezers from an actively swimming sea nettle, placed in a glass Petri dish in seawater collected from the jellyfish tank (same salinity), and viewed at 60× under a zoom stereomicroscope while various liquid chemicals were pipetted directly onto the tentacles.

[10] = test system: sea nettle (hrysaora quinquecirrha) stings; assay: Jellyfish sting test on inner forearm of human test subjects, sea nettle; assay type: in vivo
Description: Two genera of jellyfish were used in examples 2-19 described below: Chiropsalmus quadumanus, a cubomedusa and member of the Scyphozoa, also known as the sea wasp; and another scyphozoan jellyfish, hrysaora quinquecirrha, commonly called the sea nettle. These are the two most common types of stinging jellies that occur with frequency and/or regularity in normal swimming waters on the USA east coast north of Cape Canaveral.
as §1
For examples 3-19, with the exception of the commercially available spray products and the meat tenderizer paste solution, all of the other test solutions were in liquid form and were applied using a one milliliter pipetter and sterile tips.
For examples 3-19 below, the following general procedures were followed. Healthy, actively swimming jellyfish were used in all examples, and the same procedure was applied in all cases. The same human test subjects were used in all experiments, in order to have continuity and be able to qualitatively compare treatment effects among experimental dates.
as §3
Products were applied to sting sites within 1-2 minutes unless otherwise noted below. […] Thus one forearm was used for each treatment effect, and each forearm included two sting sites: one received a treatment while the other served as an untreated control. […]

[11] = 4% Lidocaine and water, pump or trigger spray, total respondents 232

Structure (SMILES): N [Ammonia]
- treatment effect on sting pain ([1]; Example 3, sea wasps 2″ bell, meat tenderizer paste, ammonia and vinegar store-bought full strength, vs untreated control site): increased the initial pain

Structure (SMILES): CCOC(=O)c1ccc(N)cc1 [benzocaine]
- solubility in water [2]: sparingly soluble in water
- dissolves in water [3]: does not dissolve in water
- maintenance of relief ([1]; Example 3): maintained until the stinging sensation eventually decreased in control sites
- red rash at sting site ([1]; Example 3, sea wasps 2″ bell): substantially reduced
- time to sting relief ([1]; Example 4, sea wasp 3″ bell): 60 to 90 s
- onset of localized numbness [4]: 30 s

Structure (SMILES): CCN(CC)CC(=O)Nc1c(C)cccc1C [lidocaine hydrochloride]
- time to initial pain relief after application [5]: around one

Structure (SMILES): CCN(CC)CC(=O)Nc1c(C)cccc1C [lidocaine]
- time at which most respondents began to feel relief ([6]; 4% Lidocaine and water spray, 5 to 15 minutes from sting to treatment): 1 min
- time by which virtually all the pain subsided ([6]; 4% Lidocaine and water spray, affected area less than 10% body coverage): ≤ 5 min
- number of respondents: Much relief [6, 11]: 128
- number of respondents: No relief [6, 11]: 0
- number of respondents: Some relief [6, 11]: 32
- number of respondents: Total relief [6, 11]: 72
- blister formation ([7]; 4% lidocaine and water applied approximately 15 minutes after the bites): typical blisters did not form
- relief from pain and itching ([7]; 4% lidocaine and water applied to 7 bites approximately 15 minutes after the bites): complete relief from pain and itching
- maintenance of relief ([1]; Example 3): maintained until the stinging sensation eventually decreased in control sites
- red rash at sting site ([1]; Example 3, sea wasps 2″ bell): substantially reduced
- redness at the sting site ([1]; Example 4, 10% lidocaine formulation compared with 10% benzocaine formulation): appeared to reduce redness at the sting site more than the benzocaine formulation
- time to sting relief ([1]; Example 4, sea wasp 3″ bell): 30 to 60 s
- rash ([1]; Example 6, 10% compared to 5% lidocaine in 80:20 water:propylene glycol): somewhat less pronounced
- pain relief ([1]; Example 6, both 5% and 10% lidocaine in 80:20 water:propylene glycol, sea wasp 3″ bell, compared to no treatment): substantial pain relief
- time to substantial relief ([1]; Example 7, 10% lidocaine in 80:20 water:propylene glycol without acetic acid, sea wasps 2″ bell, untreated stinging lasted about 30 minutes): about 1 minute
- relief after delayed application ([1]; Example 8, 10% lidocaine in 80:20 water:propylene glycol applied 5 min after sting): provided relief as though applied immediately
- time to relief ([1]; Example 8, 10% lidocaine in 80:20 water:propylene glycol applied immediately, sea wasp 2″ bell): approximately 1 minute
- itching of chigger bites after treatment [8]: ceased itching within minutes of application with no further symptoms
- nematocyst firing [9]: did not cause nematocysts from a new tentacle to fire
- performance as judged by the test subjects ([10]; Example 9, 10% lidocaine in water only compared with 10% lidocaine in 80:20 water:propylene glycol, sea nettle 6″ bell): slightly superior
- acted faster by ([10]; Example 16, 15% lidocaine in water compared with 10% lidocaine in water, sea nettle 4″ bell): 10 to 15 s
- onset of localized numbness [4]: 30 s

Structure (SMILES): NC(N)=O [urea]
- effect on the soothing effect of lidocaine ([10]; Example 12, 10% urea added to 10% lidocaine in water): did not appear to help or impede
